The text below walks through data of patent US20140315886A1, “QUINAZOLINES AS THERAPEUTIC COMPOUNDS AND RELATED METHODS OF USE” (OTSUKA PHARMACEUTICAL CO., LTD., priority 2011, published 2014).

A value given as a limit tells only on which side of the number the result lay.

The assay addresses T1, purified STEP46 enzyme (Homo sapiens, UniProt P54829).
T1 sequence (P54829 197-565 limits assumed): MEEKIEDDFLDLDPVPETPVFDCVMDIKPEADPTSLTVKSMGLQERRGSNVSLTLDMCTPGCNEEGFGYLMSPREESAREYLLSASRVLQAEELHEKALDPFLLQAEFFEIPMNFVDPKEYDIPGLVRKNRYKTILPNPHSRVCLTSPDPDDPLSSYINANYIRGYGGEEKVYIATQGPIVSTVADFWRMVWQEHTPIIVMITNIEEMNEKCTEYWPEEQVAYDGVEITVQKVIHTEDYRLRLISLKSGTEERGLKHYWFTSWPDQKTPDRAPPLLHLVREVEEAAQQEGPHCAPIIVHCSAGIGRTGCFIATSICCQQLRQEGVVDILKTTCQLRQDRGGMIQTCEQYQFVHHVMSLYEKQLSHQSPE
As to the kind of experiment: STEP46 biochemical assay (DiFMUP fluorescence phosphatase assay). The following applies: DiFMUP 10 μM, read-out: STEP IC50. Here is the method: Serial dilutions of compounds were performed in 100% DMSO and 1 uL of compounds were dispensed into 384-well black polystyrene plates (Corning, N.Y.). Compounds were incubated with 24 uL of buffer containing 50 mM Hepes, 1 mM DTT, 0.02% Brij35, 1 ng/well purified STEP46 enzyme for […] at room temperature. The reaction was initiated by addition of 25 uL of DiFMUP (6,8-difluoro-4-methylumbelliferyl phosphate) (InVitrogen, CA) with a final concentration of 10 μM and incubated at 27° C. for 90 mM Final DMSO concentration is 2%. Plates were read with florescence intensity at excitation/emission of 360/460 nm using a PheraStar plate reader (BMG Labtech, NC).
Data were expressed as percentage (%) inhibition of enzyme activity. 0% inhibition is defined as the RFUs (relative fluorescence units) in the absence of compounds and 100% inhibition is defined as RFUs in the absence of STEP46 enzyme. IC50 values of compounds with inhibitory activity against STEP46 were determined by GraphPad Prism (version 4.03) using four parameter logistic equation. Some compounds act as activators. For compounds showing STEP46 enzymatic activation, data are represented as percentage of inhibition but with negative values at three representative concentrations (25, 50 and 100 uM).
As usually defined, the IC50 is the concentration that gives 50% inhibition. In the case of `CNc1nc(-c2cccnc2)nc2cc(-c3ccc(OC)cc3F)ccc12` [Compound 218], the 50% inhibitory concentration (IC50) was 1 to 10 µM.
Take `CNc1nc(-c2cccnc2)nc2c(-c3cc(F)cc(OC)c3)ccc(OC)c12` [Compound 498]: the IC50 was in the range of 1 to 10 µM.
Consider `CNc1nc(-c2cccnc2)nc2c(F)c(-c3cc(F)c(F)c(F)c3)ccc12` [Compound 520], for which the IC50 is under 1 µM.
The figure for `CNc1nc(-c2cccnc2)nc2c(OC)cc(-c3ccc(OC)cc3)cc12` [Compound 208] is 1 to 10 µM.
As for `CNc1nc(-c2cccnc2)nc2cc(-c3c(F)cccc3F)ccc12` [Compound 455], the half-maximal inhibitory concentration (IC50) lay in the range of 1 to 10 µM.
The figure for `CNc1nc(-c2cncc(C)c2)nc2cc(-c3cc(F)ccc3F)ccc12` [Compound 160] is 1 to 10 µM.
Regarding `COc1ccc2nc(-c3cccnc3)nc(Nc3cc(Cl)ccn3)c2c1` [Compound 45, N-(4-chloropyridin-2-yl)-6-methoxy-2-(pyridin-3-yl)quinazolin-4-amine], the IC50 was over 10 µM.
The figure for `CNc1nc(-c2cccnc2)nc2ccc(-c3ccc4oc(=O)[nH]c4c3)cc12` [Compound 462] is under 1 µM; for `CNc1nc(-c2cccnc2)nc2cc(F)c(-c3ccc(F)c(F)c3)cc12` [Compound 591] it is under 1 µM.
For the compound `CNc1nc(-c2cccnc2)nc2ccc(-c3cccc(S(C)(=O)=O)c3)cc12` [Compound 245], the IC50 was over 10 µM.
The result for `Fc1ccc(-c2ccc3nc(-c4cccnc4)nc(N4CCc5ccc(Cl)cc54)c3c2)cc1` [Compound 93] reads 1 to 10 µM.
The result for `CNc1nc(-c2cccnc2)nc2c(F)c(-c3cc(F)c(F)cc3F)ccc12` [Compound 522] reads 1 to 10 µM.
For `CNc1nc(-c2cccnc2)nc2ccc(-c3nnc(-c4ccccc4)s3)cc12` [Compound 466], the 50% inhibitory concentration (IC50) fell in the range of 1 to 10 µM.
For `Fc1ccc(-c2ccc3nc(-c4cccnc4)nc(NCCc4ccccn4)c3c2)cc1` [Compound 337], the half-inhibitory concentration (IC50) is over 10 µM.
Turning to `FCCNc1nc(-c2cccnc2)nc2ccc(-c3cccc(F)c3F)cc12` [Compound 406], the 50% inhibitory concentration (IC50) is over 10 µM.
The result for `CNc1nc(-c2cccnc2)nc2cc(C)c(-c3ccc(F)c(OC)c3)cc12` [Compound 304] reads over 10 µM; that for `O=[N+]([O-])c1ccc2c(c1)CCN2c1nc(-c2cccnc2)nc2cc(-c3ccc(F)cc3F)ccc12` [Compound 104], under 1 µM; that for `CNc1nc(-c2cccnc2)nc2ccc(-c3cccc(CC(N)=O)c3)cc12` [Compound 166], over 10 µM.
`CNc1nc(-c2cccnc2)nc2c(F)c(-c3ccc(C#N)cc3)ccc12` [Compound 512]: the concentration for half-maximal inhibition (IC50) was under 1 µM.
The result for `CNc1nc(-c2cccnc2)nc2c(F)c(-c3ccc(F)cc3OC)ccc12` [Compound 543] reads 1 to 10 µM; that for `CNc1nc(-c2cccnc2)nc2cc(-c3cc(C)oc3C)ccc12` [Compound 276], over 10 µM.
The result for `CNc1nc(-c2cccnc2)nc2c(C)c(-c3ccc4c(cnn4C)c3)ccc12` [Compound 298] reads under 1 µM.
`CN(C)CCCN(C)c1nc(-c2cccnc2)nc2cc(-c3cc(F)ccc3F)ccc12` [Compound 314]: the IC50 was over 10 µM.
As to `CNc1nc(-c2cccnc2)nc2c(OC)cc(-c3cccc(Cl)c3)cc12` [Compound 305], the IC50 is 1 to 10 µM.
The result for `CNc1nc(-c2cccnc2)nc2c(OC)cc(-c3ccc(F)c(F)c3)cc12` [Compound 255] reads 1 to 10 µM; that for `Cc1c(-c2ccc(C#N)cc2)ccc2c(N(C)C)nc(-c3cccnc3)nc12` [Compound 291], 1 to 10 µM; that for `COc1ccc2c(Nc3ccc(C)cn3)nc(-c3cccnc3)nc2c1` [Compound 55], 1 to 10 µM.
The figure for `CNc1nc(-c2cccnc2)nc2ccc(-c3ccc4sc(C)nc4c3)cc12` [Compound 169, N-methyl-6-(2-methylbenzo[d]thiazol-5-yl)-2-(pyridin-3-yl)quinazolin-4-amine, 2HCl] is under 1 µM.
In the case of `CNc1nc(-c2cccnc2)nc2cc(F)c(-c3cccc(C#N)c3)cc12` [Compound 589], the IC50 is 1 to 10 µM.
